Results taken from PubChem BioAssay AID248 (DTP/NCI, 2004).
Inconclusive results and toxic doses are left out.

Test system: L1210 leukemia ip in BDF1 mice, survival T/C
Assay: NCI In Vivo Anticancer Drug Screen. Data for tumor model L1210 Leukemia (intraperitoneal) in B6D2F1 (BDF1) mice
Details: endpoint: mean survival time, higher = longer survival
Procedure, shortened: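 Transplantable tumor model; survival measured in treated vs vehicle control mice. Value = treated/control.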

[1] = dose: 100.0 mg/kg/injection, schedule: Q01DX009 (ip), vehicle: Klucel (hydroxypropylcellulose) (HPC)
[2] = dose: 200.0 mg/kg/injection, schedule: Q01DX009 (ip), vehicle: Klucel (hydroxypropylcellulose) (HPC)
[3] = dose: 75.0 mg/kg/injection, schedule: Q01DX001 (ip), vehicle: other
[4] = dose: 100.0 mg/kg/injection, schedule: Q01DX001 (ip), vehicle: carboxymethylcellulose (CMC)
[5] = dose: 200.0 mg/kg/injection, schedule: Q01DX001 (ip), vehicle: carboxymethylcellulose (CMC)
[6] = dose: 400.0 mg/kg/injection, schedule: Q01DX001 (ip), vehicle: carboxymethylcellulose (CMC)
[7] = dose: 100.0 mg/kg/injection, schedule: Q01DX009 (ip), vehicle: saline with Tween-80
[8] = dose: 200.0 mg/kg/injection, schedule: Q01DX009 (ip), vehicle: saline with Tween-80
[9] = dose: 400.0 mg/kg/injection, schedule: Q01DX009 (ip), vehicle: saline with Tween-80
[10] = dose: 100.0 mg/kg/injection, schedule: Q01DX001 (ip), vehicle: saline

Cc1ccc([N+](=O)[O-])cc1NC(=O)Nc1cccc2c(O)cccc12
T/C [1]: 86 % of control
T/C [2]: 100 % of control

O=NN(CCCl)C(=O)NC1C=CCCC1 (stereo unspecified)
T/C (dose: 9.0 mg/kg/injection, schedule: Q01DX001 (ip), vehicle: other): 117 % of control
T/C (dose: 20.0 mg/kg/injection, schedule: Q01DX001 (ip), vehicle: other): 158 % of control
T/C (dose: 37.0 mg/kg/injection, schedule: Q01DX001 (ip), vehicle: other): 224 % of control
T/C (dose: 50.0 mg/kg/injection, schedule: Q01DX001 (ip), vehicle: other): 175 % of control
T/C [3]: 173 % of control
T/C (dose: 112.0 mg/kg/injection, schedule: Q01DX001 (ip), vehicle: other): 166 % of control

Cc1cc(NCCN(C(C)C)C(C)C)nc(/N=C(\N)Nc2ccc(Cl)c(Cl)c2)n1
T/C (dose: 4.69 mg/kg/injection, schedule: Q01DX009 (ip), vehicle: Klucel (hydroxypropylcellulose) (HPC)): 95 % of control
T/C (dose: 9.38 mg/kg/injection, schedule: Q01DX009 (ip), vehicle: Klucel (hydroxypropylcellulose) (HPC)): 93 % of control
T/C (dose: 18.75 mg/kg/injection, schedule: Q01DX009 (ip), vehicle: Klucel (hydroxypropylcellulose) (HPC)): 87 % of control
T/C [3]: 94 % of control
T/C (dose: 150.0 mg/kg/injection, schedule: Q01DX001 (ip), vehicle: other): 105 % of control

O=C1CCC(=O)N1Nc1ccccc1
T/C (dose: 50.0 mg/kg/injection, schedule: Q01DX001 (ip), vehicle: carboxymethylcellulose (CMC)): 104 % of control
T/C [4]: 96 % of control
T/C [5]: 102 % of control
T/C [6]: 98 % of control

CNS(=O)(=O)c1ccc(N)cc1
T/C (dose: 100.0 mg/kg/injection, schedule: Q01DX001 (ip), vehicle: other): 107 % of control
T/C [7]: 102 % of control
T/C (dose: 100.0 mg/kg/injection, schedule: Q04DX003 (ip), vehicle: other): 97 % of control
T/C (dose: 200.0 mg/kg/injection, schedule: Q01DX001 (ip), vehicle: other): 104 % of control
T/C [8]: 110 % of control
T/C (dose: 200.0 mg/kg/injection, schedule: Q04DX003 (ip), vehicle: other): 106 % of control
T/C (dose: 400.0 mg/kg/injection, schedule: Q01DX001 (ip), vehicle: other): 100 % of control
T/C [9]: 98 % of control
T/C (dose: 400.0 mg/kg/injection, schedule: Q04DX003 (ip), vehicle: other): 108 % of control

Clc1ccccc1-c1ccc2c(Cl)ccnc2c1
T/C [10]: 95 % of control
T/C (dose: 200.0 mg/kg/injection, schedule: Q01DX001 (ip), vehicle: saline): 95 % of control
T/C (dose: 400.0 mg/kg/injection, schedule: Q01DX001 (ip), vehicle: saline): 91 % of control

CCc1ccc(NS(=O)(=O)c2ccc(OC)cc2)cc1
T/C [1]: 102 % of control
T/C [2]: 100 % of control
T/C (dose: 400.0 mg/kg/injection, schedule: Q01DX009 (ip), vehicle: Klucel (hydroxypropylcellulose) (HPC)): 109 % of control

O=C(CCCCl)N1CCCCC1
T/C (dose: 100.0 mg/kg/injection, schedule: Q04DX002 (ip), vehicle: saline): 94 % of control
T/C (dose: 200.0 mg/kg/injection, schedule: Q04DX002 (ip), vehicle: saline): 98 % of control
T/C (dose: 400.0 mg/kg/injection, schedule: Q04DX002 (ip), vehicle: saline): 96 % of control

CN1NC(=O)CC1c1ccccc1 (stereo unspecified)
T/C (dose: 100.0 mg/kg/injection, schedule: Q04DX002 (ip), vehicle: Klucel (hydroxypropylcellulose) (HPC)): 93 % of control
T/C (dose: 200.0 mg/kg/injection, schedule: Q04DX002 (ip), vehicle: Klucel (hydroxypropylcellulose) (HPC)): 97 % of control
T/C (dose: 400.0 mg/kg/injection, schedule: Q04DX002 (ip), vehicle: Klucel (hydroxypropylcellulose) (HPC)): 100 % of control

N=Cc1c(O)n(-c2ccccc2)c(=O)n(-c2ccccc2)c1=O
T/C [7]: 102 % of control
T/C [8]: 104 % of control
T/C [9]: 93 % of control

NC(=O)N/N=C(/CBr)c1ccc(-c2ccccc2)cc1
T/C (dose: 25.0 mg/kg/injection, schedule: Q04DX003 (ip), vehicle: saline): 101 % of control
T/C (dose: 50.0 mg/kg/injection, schedule: Q04DX003 (ip), vehicle: saline): 95 % of control
T/C [10]: 96 % of control
T/C (dose: 100.0 mg/kg/injection, schedule: Q04DX003 (ip), vehicle: saline): 91 % of control

COc1c2c(c3ccccc3c1OC(C)=O)OC(C)(C)CC2
T/C (dose: 100.0 mg/kg/injection, schedule: Q01DX001 (ip), vehicle: saline with Tween-80): 88 % of control
T/C (dose: 200.0 mg/kg/injection, schedule: Q01DX001 (ip), vehicle: saline with Tween-80): 92 % of control
T/C (dose: 400.0 mg/kg/injection, schedule: Q01DX001 (ip), vehicle: saline with Tween-80): 90 % of control

CCOP(=S)(N1CC1)N1CC1
T/C [4]: 95 % of control
T/C [5]: 95 % of control
T/C [6]: 94 % of control
